Reference: US11390603B2, “Crystalline forms of a biphenyl compound” (THERAVANCE BIOPHARMA R&D IP, LLC, priority 2005, dated 2022)

Target: T1, M3 muscarinic receptor subtype (Homo sapiens, UniProt P20309)
T1 construct: expressed in transfected cells
Experiment: Radioligand binding assay ([3H]-NMS displacement)
Details: CHO cell membranes, [3H]-NMS at 1 nM; tested in this or a similar assay
Protocol: CHO cell lines stably expressing cloned human hM1, hM2, hM3 and hM4 muscarinic receptor subtypes, respectively, were grown to near confluency in medium consisting of HAM's F-12 supplemented with 10% FBS and 250 μg/mL Geneticin. The cells were grown in a 5% CO2, 37° C. incubator and lifted with 2 mM EDTA in dPBS. Cells were collected by 5 minute centrifugation at 650×g, and cell pellets were either stored frozen at −80° C. or membranes were prepared immediately. For membrane preparation, cell pellets were resuspended in lysis buffer and homogenized with a Polytron PT-2100 tissue disrupter (Kinematica AG; 20 seconds×2 bursts). Crude membranes were centrifuged at 40,000×g for 15 minutes at 4° C. […] The protein concentration of the membrane suspension was determined by the method described in Lowry, O. et al., Journal of Biochemistry 193:265 (1951). […]
Radioligand binding assays were performed in 96-well microtiter plates in a total assay volume of 100 μL. […] Filter plates were rinsed three times with wash buffer (10 mM HEPES) to remove unbound radioactivity. […] The plates were then counted in a PerkinElmer Topcount liquid scintillation counter (PerkinElmer Inc., Wellesley, Mass.). Binding data were analyzed by nonlinear regression analysis with the GraphPad Prism Software package (GraphPad Software, Inc., San Diego, Calif.) using the one-site competition model. […]

T1 sequence (P20309 whole entry): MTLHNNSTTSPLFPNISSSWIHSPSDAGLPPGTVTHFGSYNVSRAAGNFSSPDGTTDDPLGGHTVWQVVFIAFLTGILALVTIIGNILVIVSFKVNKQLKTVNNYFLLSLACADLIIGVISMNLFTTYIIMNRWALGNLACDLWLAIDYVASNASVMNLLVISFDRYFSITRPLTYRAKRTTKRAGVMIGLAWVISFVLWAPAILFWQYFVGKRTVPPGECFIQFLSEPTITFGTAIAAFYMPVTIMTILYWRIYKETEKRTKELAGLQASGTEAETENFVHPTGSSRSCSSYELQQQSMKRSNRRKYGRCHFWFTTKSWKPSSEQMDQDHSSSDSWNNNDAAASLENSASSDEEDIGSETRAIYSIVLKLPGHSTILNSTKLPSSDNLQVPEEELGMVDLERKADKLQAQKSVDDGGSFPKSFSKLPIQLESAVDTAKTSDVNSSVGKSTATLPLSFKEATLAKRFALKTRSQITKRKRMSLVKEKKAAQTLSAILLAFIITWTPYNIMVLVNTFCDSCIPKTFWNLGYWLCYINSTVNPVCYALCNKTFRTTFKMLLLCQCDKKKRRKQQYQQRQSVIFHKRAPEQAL

CN(CCN1CCC(OC(=O)Nc2ccccc2-c2ccccc2)CC1)C(=O)c1ccc(CN2CCC(C(N)=O)CC2)cc1 [compound of formula I, biphenyl-2-ylcarbamic acid 1-(2-{[4-(4-carbamoylpiperidin-1-ylmethyl)benzoyl]methylamino}ethyl)piperidin-4-yl ester]
Ki: < 5 nM
